Where “and” joins values, the source holds several entries; their conditions need not be identical. Equal values may be shown once. Where no end group is shown, it is not given here.

For one assay, the target named is HLA-A*0201 molecule (Homo sapiens, UniProt P04439, D140Y/D185E/D98H/E176V/E277Q/G131W/G231S/I119V/I121R/I166T/I218V/L300P/L318F/N151K/N90K/P208A/P217A/Q86G/Q94H/R138H/R169H/T345S). Put plainly: Peptide binding to HLA-A*0201 molecule on JY cells (flow cytometry, Kd). Conditions: HLA-A*0201, JY cells. Here is the method:
The ability of a peptide to bind to an HLA-A*0201 molecule, which is a product of the HLA-A*0201 gene, was measured using strain JY cells expressing the HLA-A*0201 molecule.
JY cells were first exposed to acidic conditions at a pH of 3.8 for 30 seconds, thus dissociating and removing a β2m light chain and an endogenous peptide, which were noncovalently associated with the HLA-A* 0201 molecule. After neutralization, a reconstitution experiment was carried out.
The above-mentioned JY cells and the purified […] were added to serial dilutions of peptide for which the binding ability needs to be measured, and incubation was carried out on ice for 4 hours. HLA-A*0201 molecules that had reassociated up to this time point were stained using the fluorescently-labeled monoclonal antibody BB7.2, a conformation dependent monoclonal Ab specific for an assembled form of HLA-A*0201 molecule.
Subsequently, the amount of fluorescence per cell was measured using a flow cytometer and a dissociation constant Kd value was calculated by a method published in the literature (Udaka et al., Immunogenetics, 51, 816-828, 2000).
Background: Flow cytometry measures light scatter and fluorescence of single cells or particles in a stream.

In another assay the test system is malignant tumors. Briefly: Peptide immunotherapy of patients, tumor response by RECIST criteria (CT/MRI). The format is in vivo, human. The arrangement: key to RECIST, single lung metastasis / RECIST, total sum of longest diameters of 10 metastatic target lesions / RECIST, pubic bone metastatic tumor / RECIST determination 3 months after starting W10 peptide therapy: CR: all target lesions have disappeared; PR: the sum of the longest diameters of the target lesions decreases by at least 30%; PD: the sum of the longest diameters of the target lesions increases by at least 20%; SD: the change of tumr size is between PR or PD. Here is the method: Among 18 patients, 3 people are illustrated in the style of case reports. […] The mixture was prepared immediately prior to administration. When W10 peptide was administered without petussis vaccine in the safety test, W10 peptide solution was divided into 4 equal portions and injected intradermally at 4 locations in the same manner. A method to measure the diameter of a tumor and a method to analyze peptide-specific T-cells using an HLA-A24 tetramer by flow cytometry are described below.
The international RECIST criteria referred to here is an evaluation standard described in Theresse, P. et al., J Natl Cancer Inst. 2000, 92, 205-216. When there is confirmation by helical CT or MRI that all target lesions have disappeared this is defined as CR (complete response), when the sum of the longest diameters of the target lesions decreases by at least 30% this is defined as PR (partial response), when the sum of the longest diameters of the target lesions increases by at least 20% this is defined as PD (progressive disease), and when the change of tumr size is between PR or PD this is defined as SD (stable disease). However, regardless of the presence or absence of a change in the target lesions, when even one new lesion appears this is defined as PD.
Based on the above-mentioned international RECIST criteria, which is used for evaluation of anticancer drugs, all measurable tumors were selected as target tumors, and change in the SLD of the tumors over the course of the therapy was monitored. In addition, number of all the tumors was counted, regardless of the size of a tumor, every time diagnostic imaging was carried out in order to lookout for new lesions. Diagnostic imaging was carried out in principle once a month by helical CT or MRI. If even one new metastasis appeared, regardless of the change in the primary lesion, it was judged as PD.
Clinical responses were evaluated according to the aforementioned international RECIST criteria for 18 patients who had been treated by immunotherapy using W10+Wc for at least 3 months and one week. Eight cased out of 18 patients were judged as SD, 10 cased were PD. […] In reports on peptide immunotherapy so far, the tumor control rate was limited to a few % up to ten or so % worldwide (Reference Documents 1 to 4). Compared with these already reported cases, this is a good reaction.

Assay [1] has as its system prostate-specific antigen (PSA). Put plainly: Prostate tumor marker PSA during W10 peptide immunotherapy. It is filed as in vivo, human. Here is the method:
After the gradual increase the dose was fixed to 3 mg of W10 peptide+Wc and immunotherapy was continued. […] The day when 1 mg of W10 peptide on its own was first administered was presented as day 0. Arrows with dotted line indicates the period when 3 mg of W10 without Wc was injected for safety test (W10). The period where Wc was further added to W10 is also indicated with arrows with solid line (W10+Wc). […] Therefore, osteolytic lesions were measured as the size of tumors. […] Around May 2008, PSA gradually started to increase again, and pain started in the right femur. From the end of July 2008, a taxotere+Predonin therapy was started. W10+Wc immunotherapy was continued along with chemotherapy.
Immunotherapy was started with 3 mg W10 peptide while monitoring safety, then dose escalation was put forward with W10 peptide 1 mg+Wc, followed by 3 mg of W10 peptide+Wc. Eventually, the dose was fixed at this level and weekly immunization was continued. […] The day the immunization was started with 3 mg of W10 without Wc was set as day 0. […] For about half a year, PSA was stable at less than 0.1 (FIG. 14 a). […] When the immunotherapy was resumed, PSA decreased. After this incident, PSA started to show gradual increase. […] The size of a pubic bone metastatic tumor has been maintained within SD for 37 weeks on the RECIST standard so far (FIG. 14 b). […]

ALLPAVPSL [W10]: the “Binding assay data (−log Kd)” value at HLA-A*0201 molecule was determined as 7.84. In addition, the “Duration of tumor control (weeks)” value in the assay on malignant tumors (one line per patient case, W10+Wc immunotherapy, weekly intradermal, listed as W10 peptide) is 37 weeks and 30 weeks and 32 weeks and 10 weeks and 4 weeks and 0 weeks (6×) and 6 weeks and 17 weeks and 19 weeks and 12 weeks and 33 weeks and 38 weeks. The “RECIST determination 3 months after starting W10 peptide therapy” value in the assay on malignant tumors (one line per patient case, W10+Wc immunotherapy, listed as W10 peptide) is “SD (7×) and SD > PD and PD (the sum of the longest diameters of the target lesions increases by at least 20%) (10×)”. In addition, the “RECIST, pubic bone metastatic tumor” value in the assay with malignant tumors (patient KB07-003, maintained for 37 weeks) is “SD”. Further, the New metastatic tumors entry in the assay on malignant tumors (patient KB07-003, since W10 therapy started) was “no new metastatic tumors have been found”. Moreover, the “Growth of metastatic tumor in the bone (SLD)” value in the assay with malignant tumors (patient KB07-005, right femur) was “almost stopped”. In the assay with malignant tumors (patient KB07-005, throughout the period), the New distant metastasis entry is listed as “no new distant metastasis was observed”. For the same sequence, in the assay with malignant tumors (patient KB07-006), the “Growth of tumors expressing WT1” value was “suppressed”. The “Appearance of new metastatic lesion” value with malignant tumors (patient KB07-006, 13 months after starting W10 peptide) is “no appearance of a new metastatic lesion”. Besides, the “RECIST, total sum of longest diameters of 10 metastatic target lesions” value in the assay with malignant tumors (patient KB07-006, CT on the 37th week) is recorded as “PD (the sum of the longest diameters of the target lesions increases by at least 20%)”; in the assay with malignant tumors (patient KB07-006, adenoid cystic carcinoma, up to 32 weeks) it was “SD”. Further, the PSA result in assay [1] (patient KB07-003, prostate cancer, stable for about half a year) is on record as “less than 0.1”. The “PSA after starting immunotherapy” value in assay [1] (patient KB07-005, prostate cancer) is given as “around 0.04”.

These data come from patent US20100255020A1, “METHOD FOR INDUCING CYTOTOXIC T-CELLS, CYTOTOXIC T-CELL INDUCERS, AND PHARMACEUTICAL COMPOSITIONS AND VACCINES EMPLOYING THEM” (NEC CORPORATION, priority 2007, published 2010).
